Measurements as given in patent US6177592A, “Compounds” (priority 1997, dated 2001).

Assays:
[1] = tested on: DSEK cell (fibroblast strain from synovial membrane); assay: Growth of DSEK synovial fibroblasts (WST-1) and apoptosis; format: cell-based, human (patient suffering from chronic articular rheumatism)
Protocol: DSEK cell (cell strain stored at the Department of Second Internal Medicine, Integrated Medical Center, Saitama College of Medicine) which was a fibroblast strain established from synovial membrane of a patient suffering from chronic articular rheumatism was incubated in an Iscob-modified Dulbecco medium (IMDM, manufactured by Gibco, 12440-053) containing 10% fetal bovine serum (FBS, manufactured by Gibco, 26140-079) at 37° C. in the presence of 5% carbon dioxide gas until confluent and then the cells were collected by peeling off with trypsin-EDTA (manufactured by Gicbo, 25300-054). The cells were suspended in the above-mentioned medium until 25,000 cells/ml were resulted and each 100 μl was placed in each well of a 96-well microtiter plate. After five days from incubation when the state of confluence was almost achieved, the medium was discarded and then the above-mentioned medium containing 2.5, 5, 10, 20 or 30 μM of GM was added. After incubating for 24, 48 or 72 hours, 10 μl of a premix WST-1 (manufactured by Takara Shuzo, MK400) was added thereto followed by subjecting to a reaction at 37° C. for four hours. The value obtained by deducting the absorbance at 650 nm (A650) from that at 450 nm (A450) was defined as a degree of growth of cell.

[2] = tested on: carrageenan-induced pedal edema; assay: Carrageenan-induced pedal edema in Lewis rats; format: in vivo; conditions: Rattus norvegicus, 3 h; oral; three hours after carrageenan; read-out: dose with significant inhibition of pedal edema
Protocol: Carrageenan-induced pedal edema models which were animal model of chronic articular rheumatism were prepared as follows using male Lewis rats [purchased from Seac-Yoshitomi when five weeks age (body weight: about 130 g) followed by subjecting to a preliminary breeding for one week at our end] and the test drugs were evaluated.
To the rats which were fasted since 18 hours before initiation of the experiment was orally administered with 10 ml/kg of GM which was prepared with distilled water (manufactured by Otsuka Pharmaceutical) to make 10 and 100 mg/ml.
After 0.5 hour from administration of the test drug, 100 μl/rat of 1% suspension of carrageenan (manufactured by Wako) in a physiologically saline solution (manufactured by Otsuka Pharmaceutical) was injected to right paw to induce pedal edema. After three hours from the carrageenan injection, volume of right paw of the rat was measured by a pedal volume measuring device (manufactured by UGO BASILE). Incidentally, the measured value was expressed by calculating the increasing rate from the right paw volume of each rat measured before the carrageenan administration.

NIH 3T3/Y-1 = assay: Colony formation of control-vector NIH 3T3/Y-1 cells; format: cell-based; conditions: 5 μM GM, nine days; control 83.3 ± 8.4
Protocol: (1) Transformation to Escherichia coli HB101 was conducted by control plasmid pcD2-Y expressing G418-resisting gene [Mol. Cell. Biol., volume 7, pages 2745-2752 (1987)] and plasmid pcD2-16E7 which was capable of expressing both HPV 16 type E7 and G418-resisting gene [Jpn. J. Cancer Res., volume 82, pages 1340-1343 (1991)], then incubation was conducted in an L-broth medium and plasmid was extracted from the collected cells and purified by a cesium chloride density gradient ultracentrifugation to give vector plasmid for introduction of gene.
The purified plasmid (10 μg) was introduced into NIH 3T3 cells using a cationic liposome (TransIT LT-1, manufactured by Takara Shuzo), the cells were selected at 37° C. under the condition of 5% CO2 for two weeks in a Dulbecco-modified Eagle's medium containing 10% calf serum which contained 0.4 mg/ml of G418 (Gibco) and the resulting colonies were cloned to establish each nine strains of NIH 3T3 cells into which control vector was introdcd and NIH 3T3 cells which was cancerated with HPV 16 type E7.
The cell strains into which control vector was introduced were named NIH 3T3/Y-1, NIH 3T3/Y-2, NIH 3T3/Y-3, NIH 3T3/Y-4, NIH 3T3/Y-5, NIH 3T3/Y-6, NIH 3T3/Y-7, NIH 3T3/Y-8 and […]). […]
A part of the suspension was taken out and cell density was counted by a Neubauer's hemocytometer. […]

NIH 3T3 = assay: Colony formation of NIH 3T3 cells; format: cell-based; conditions: 5 μM GM, nine days; control 91.7 ± 11.9
Protocol: NIH 3T3 cells were incubated at 37° C. under the condition of 5% CO2 in a Dulbecco-modified Eagle's medium containing 10% of calf serum.
(2) NIH 3T3 cells, the cells strains into which control vector was introduced and the cell strains into which E7 was introduced were made to grow to an extent of 50-70% confluence in a Dulbecco-modified Eagle's medium containing 10% of calf serum using a 100 mm-tissue culture plate and washed with PBS and the cells were peeled off with a 0.25% trypsin-EDTA solution and suspended in 5 ml of Dulbecco-modified Eagle's medium containing 10% of calf serum.
A part of the suspension was taken out and cell density was counted by a Neubauer's hemocytometer. Based upon the resulting data, it was diluted with a Dulbecco-modified Eagle's medium containing 10% of calf serum and planted on a tissue culture plate having a diameter of 60 mm to make 200 cells/plate and incubation was started in 3 ml of the medium. After 24 hours from the initiation of the incubation, GM was added thereto to make its concentration 5 μM. After additional 24 hours, the medium was exchanged with a fresh one and GM was added thereto to make its concentration 5 μM.
After that, the medium was exchanged with a fresh one every two to three days followed by adding GM thereto to make its concentration 5 μM. […]

CEM-SS cells = assay: Survival rate of CEM-SS cells; format: cell-based; conditions: one day
Protocol: GM (0, 4, 8 or 16 μM) was added to 2×10^5 cell/ml of CEM-SS cells (ATCC CCL-119) and to CEM-SS cells infected with HIV-1IIIB (wherein not less than 90% of the CEM-SS cells were infected with the HIV-1IIIB; hereinafter, referred to as CEM-3B) incubation was conducted for one day, viable cell numbers and dead cell numbers were counted and survival cell rate was calculated.

N[C@@H](CCC(=O)N[C@@H](CSC1C=C(O)C(=O)C1)C(=O)NCC(=O)O)C(=O)O (stereo partly drawn) [GM, 2-hydroxy-4-glutathion-S-yl-2-cyclopenten-1-one]
degree of growth of cell (A450 - A650) ([1]; 2.5 μM, 24 hours, 0 μM 0.846): 0.768
degree of growth of cell (A450 - A650) ([1]; 2.5 μM, 48 hours, 0 μM 1.270): 1.133
degree of growth of cell (A450 - A650) ([1]; 5 μM, 24 hours, 0 μM 0.846): 0.621
degree of growth of cell (A450 - A650) ([1]; 5 μM, 48 hours, 0 μM 1.270): 0.942
production of apoptic bodies ([1]; 10 μM): production of apoptic bodies was noted
degree of growth of cell (A450 - A650) ([1]; 10 μM, 24 hours, 0 μM 0.846): 0.420
degree of growth of cell (A450 - A650) ([1]; 10 μM, 48 hours, 0 μM 1.270): 0.486
degree of growth of cell (A450 - A650) ([1]; 20 μM, 24 hours, 0 μM 0.846): 0.238
degree of growth of cell (A450 - A650) ([1]; 20 μM, 48 hours, 0 μM 1.270): 0.185
degree of growth of cell (A450 - A650) ([1]; 30 μM, 24 hours, 0 μM 0.846): 0.241
degree of growth of cell (A450 - A650) ([1]; 30 μM, 48 hours, 0 μM 1.270): 0.196
apoptosis-inducing and growth-inhibiting action to synovial cells (in words) ([1]; Example 11): apoptosis-inducing action and growth-inhibiting action to synovial cells
minimal effective concentration ([1]; Homo sapiens, Fibroblast, 24 and 48 hours, vs control, read-out: concentration at which cell growth was inhibited): ≥ 5 µM
minimal effective dose [2]: ≥ 100 mg/kg
Numbers of Colonies (Mean Value ± SD) (NIH 3T3/Y-1): 72.0 ± 9.5
Numbers of Colonies (Mean Value ± SD) (NIH 3T3): 79.0 ± 2.6
survival rate of cells (CEM-SS cells; 16 μM): the survival rate of CEM-SS cells decreased as well
survival rate of cells (CEM-SS cells; 4 or 8 μM): survival rate did not decrease in CEM-SS cells
